{"source": "ChEMBL document CHEMBL4477252", "about": "“Optimization of microtubule affinity regulating kinase (MARK) inhibitors with improved physical properties” (Bioorg Med Chem Lett, 2016)", "key": {"[1]": {"target": "Serine/threonine-protein kinase Nek4 (Homo sapiens, UniProt P51957)", "sequence (P51957 whole entry)": "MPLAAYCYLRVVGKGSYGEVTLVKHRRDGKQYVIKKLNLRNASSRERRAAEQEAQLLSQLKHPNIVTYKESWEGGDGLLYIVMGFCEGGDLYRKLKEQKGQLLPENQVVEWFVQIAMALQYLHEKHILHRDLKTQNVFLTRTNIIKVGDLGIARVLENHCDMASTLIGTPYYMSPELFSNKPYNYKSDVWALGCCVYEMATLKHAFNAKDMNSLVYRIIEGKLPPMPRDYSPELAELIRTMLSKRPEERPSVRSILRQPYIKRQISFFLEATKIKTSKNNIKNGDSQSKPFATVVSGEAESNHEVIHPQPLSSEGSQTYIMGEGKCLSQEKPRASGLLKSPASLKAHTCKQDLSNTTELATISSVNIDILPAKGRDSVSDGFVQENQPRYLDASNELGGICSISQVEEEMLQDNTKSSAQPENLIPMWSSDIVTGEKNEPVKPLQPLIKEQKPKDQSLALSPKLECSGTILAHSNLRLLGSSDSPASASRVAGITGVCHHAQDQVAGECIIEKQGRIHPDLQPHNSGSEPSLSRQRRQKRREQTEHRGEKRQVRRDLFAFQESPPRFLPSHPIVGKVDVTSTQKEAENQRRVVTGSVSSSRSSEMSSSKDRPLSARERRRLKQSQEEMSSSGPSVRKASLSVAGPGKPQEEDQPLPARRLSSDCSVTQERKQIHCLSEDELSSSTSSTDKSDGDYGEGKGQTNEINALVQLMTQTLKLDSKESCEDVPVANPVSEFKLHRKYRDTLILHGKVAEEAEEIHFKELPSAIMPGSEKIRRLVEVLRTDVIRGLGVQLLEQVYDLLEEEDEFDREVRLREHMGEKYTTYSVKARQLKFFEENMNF", "experiment": "Inhibition of full-length recombinant human GST-tagged NEK4 expressed in baculovirus expression system by Z'-LYTE assay"}, "[2]": {"target": "T1, Dual specificity mitogen-activated protein kinase kinase 6 (Homo sapiens, UniProt P52564)", "T1 sequence (P52564 whole entry)": "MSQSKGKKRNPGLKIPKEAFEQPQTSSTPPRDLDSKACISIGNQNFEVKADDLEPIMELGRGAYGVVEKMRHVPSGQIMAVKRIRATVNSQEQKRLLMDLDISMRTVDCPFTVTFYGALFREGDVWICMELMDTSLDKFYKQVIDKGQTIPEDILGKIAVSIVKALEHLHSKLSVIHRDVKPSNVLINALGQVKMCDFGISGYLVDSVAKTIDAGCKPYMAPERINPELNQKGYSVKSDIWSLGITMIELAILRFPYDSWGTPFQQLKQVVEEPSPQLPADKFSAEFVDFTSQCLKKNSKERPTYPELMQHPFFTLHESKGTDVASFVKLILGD", "experiment": "Inhibition of full-length recombinant human His-tagged MAP2K6 expressed in baculovirus expression system by Z'-LYTE assay"}, "Ephrin type-A receptor 8": {"target": "T2, Ephrin type-A receptor 8 (Homo sapiens, UniProt P29322)", "T2 sequence (P29322 whole entry)": "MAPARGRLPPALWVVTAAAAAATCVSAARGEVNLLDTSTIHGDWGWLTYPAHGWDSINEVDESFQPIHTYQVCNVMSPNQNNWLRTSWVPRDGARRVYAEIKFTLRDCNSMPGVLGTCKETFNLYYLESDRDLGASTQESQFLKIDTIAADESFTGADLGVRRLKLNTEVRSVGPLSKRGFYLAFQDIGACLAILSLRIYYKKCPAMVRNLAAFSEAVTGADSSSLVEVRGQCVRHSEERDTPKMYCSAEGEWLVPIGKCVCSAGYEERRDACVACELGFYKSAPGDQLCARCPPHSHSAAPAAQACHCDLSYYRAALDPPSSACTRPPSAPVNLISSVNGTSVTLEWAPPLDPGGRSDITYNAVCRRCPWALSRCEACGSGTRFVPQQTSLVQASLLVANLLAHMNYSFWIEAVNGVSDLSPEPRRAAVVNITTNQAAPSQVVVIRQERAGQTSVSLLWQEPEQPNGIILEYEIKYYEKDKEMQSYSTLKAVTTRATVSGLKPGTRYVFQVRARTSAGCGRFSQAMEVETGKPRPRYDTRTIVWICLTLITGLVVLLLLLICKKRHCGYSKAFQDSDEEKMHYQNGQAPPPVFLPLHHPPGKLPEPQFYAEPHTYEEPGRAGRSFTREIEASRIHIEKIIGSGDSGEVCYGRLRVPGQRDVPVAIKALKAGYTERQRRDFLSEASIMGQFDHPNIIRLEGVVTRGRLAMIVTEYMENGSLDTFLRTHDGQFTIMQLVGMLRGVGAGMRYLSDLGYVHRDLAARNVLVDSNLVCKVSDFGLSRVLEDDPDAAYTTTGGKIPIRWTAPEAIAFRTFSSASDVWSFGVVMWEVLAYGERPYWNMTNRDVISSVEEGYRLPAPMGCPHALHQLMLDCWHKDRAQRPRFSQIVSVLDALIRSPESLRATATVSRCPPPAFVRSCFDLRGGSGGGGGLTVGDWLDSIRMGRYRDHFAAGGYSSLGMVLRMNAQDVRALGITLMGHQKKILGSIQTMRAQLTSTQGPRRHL", "experiment": "Inhibition of recombinant human GST-tagged cytoplasmic EPHA8 expressed in baculovirus expression system by Z'-LYTE assay"}, "[3]": {"target": "T3, NUAK family SNF1-like kinase 1 (Homo sapiens, UniProt O60285)", "T3 sequence (O60285 whole entry)": "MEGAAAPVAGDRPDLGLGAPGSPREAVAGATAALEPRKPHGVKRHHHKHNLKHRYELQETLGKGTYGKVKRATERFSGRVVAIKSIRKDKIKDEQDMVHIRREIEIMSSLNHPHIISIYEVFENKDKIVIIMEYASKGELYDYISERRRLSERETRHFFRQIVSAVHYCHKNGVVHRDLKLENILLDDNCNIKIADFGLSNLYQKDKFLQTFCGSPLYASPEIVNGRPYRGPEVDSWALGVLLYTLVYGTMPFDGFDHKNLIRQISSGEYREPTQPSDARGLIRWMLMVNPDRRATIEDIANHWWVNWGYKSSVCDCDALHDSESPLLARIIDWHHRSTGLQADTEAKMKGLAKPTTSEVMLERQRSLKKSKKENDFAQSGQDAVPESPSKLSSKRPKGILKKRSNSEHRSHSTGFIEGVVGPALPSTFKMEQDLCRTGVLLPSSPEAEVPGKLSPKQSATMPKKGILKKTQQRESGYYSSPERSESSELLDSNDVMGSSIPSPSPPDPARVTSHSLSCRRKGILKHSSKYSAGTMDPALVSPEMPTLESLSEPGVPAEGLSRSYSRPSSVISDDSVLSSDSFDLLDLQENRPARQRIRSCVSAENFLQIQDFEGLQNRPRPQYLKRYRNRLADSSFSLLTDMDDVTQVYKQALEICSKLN", "experiment": "Inhibition of full-length recombinant human His-tagged NUAK1 expressed in baculovirus expression system by Adapta assay"}, "[4]": {"target": "Glycogen synthase kinase-3 alpha (Homo sapiens, UniProt P49840)", "sequence (P49840 whole entry)": "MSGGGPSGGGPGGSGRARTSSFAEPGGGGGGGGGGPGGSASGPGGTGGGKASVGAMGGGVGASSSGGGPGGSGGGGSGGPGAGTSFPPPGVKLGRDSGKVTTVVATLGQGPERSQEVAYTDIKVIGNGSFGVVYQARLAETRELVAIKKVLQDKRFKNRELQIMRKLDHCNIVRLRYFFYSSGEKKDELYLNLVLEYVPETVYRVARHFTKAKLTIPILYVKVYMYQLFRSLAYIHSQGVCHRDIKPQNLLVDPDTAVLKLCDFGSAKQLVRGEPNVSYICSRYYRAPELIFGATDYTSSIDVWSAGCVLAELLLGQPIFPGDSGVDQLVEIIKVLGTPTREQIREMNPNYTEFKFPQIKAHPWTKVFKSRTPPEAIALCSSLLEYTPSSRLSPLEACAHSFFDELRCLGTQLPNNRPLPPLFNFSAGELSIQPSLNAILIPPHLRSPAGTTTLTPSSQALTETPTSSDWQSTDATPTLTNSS", "experiment": "Inhibition of full-length human GST-tagged GSK3A expressed in baculovirus expression system by Z'-LYTE assay"}, "[5]": {"target": "Cyclin-dependent kinase 5/CDK5 activator 1 (Homo sapiens, UniProt Q00535)", "sequence (Q00535 whole entry)": "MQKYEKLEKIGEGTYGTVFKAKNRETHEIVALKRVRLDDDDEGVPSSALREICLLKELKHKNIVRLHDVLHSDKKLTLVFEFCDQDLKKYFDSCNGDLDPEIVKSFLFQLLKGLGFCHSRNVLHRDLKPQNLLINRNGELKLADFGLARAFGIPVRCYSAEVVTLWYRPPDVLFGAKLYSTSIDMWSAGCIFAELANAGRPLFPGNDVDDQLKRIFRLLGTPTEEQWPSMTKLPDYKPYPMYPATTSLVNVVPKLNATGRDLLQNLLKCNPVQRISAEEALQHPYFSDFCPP", "sequence (Q15078 whole entry, further chain)": "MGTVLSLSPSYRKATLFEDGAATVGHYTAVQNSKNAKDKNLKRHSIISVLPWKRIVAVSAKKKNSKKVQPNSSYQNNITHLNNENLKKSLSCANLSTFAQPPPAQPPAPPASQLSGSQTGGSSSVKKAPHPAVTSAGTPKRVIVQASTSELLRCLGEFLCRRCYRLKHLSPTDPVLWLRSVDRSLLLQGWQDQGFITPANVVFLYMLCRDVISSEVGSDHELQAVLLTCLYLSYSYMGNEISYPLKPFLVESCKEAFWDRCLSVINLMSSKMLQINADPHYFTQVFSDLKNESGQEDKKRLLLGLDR", "experiment": "Inhibition of full-length recombinant human GST and His-tagged CDK5/P25 expressed in baculovirus expression system by Z'-LYTE assay"}, "[6]": {"target": "Serine/threonine-protein kinase PAK 1 (Homo sapiens, UniProt Q13153)", "sequence (Q13153 whole entry)": "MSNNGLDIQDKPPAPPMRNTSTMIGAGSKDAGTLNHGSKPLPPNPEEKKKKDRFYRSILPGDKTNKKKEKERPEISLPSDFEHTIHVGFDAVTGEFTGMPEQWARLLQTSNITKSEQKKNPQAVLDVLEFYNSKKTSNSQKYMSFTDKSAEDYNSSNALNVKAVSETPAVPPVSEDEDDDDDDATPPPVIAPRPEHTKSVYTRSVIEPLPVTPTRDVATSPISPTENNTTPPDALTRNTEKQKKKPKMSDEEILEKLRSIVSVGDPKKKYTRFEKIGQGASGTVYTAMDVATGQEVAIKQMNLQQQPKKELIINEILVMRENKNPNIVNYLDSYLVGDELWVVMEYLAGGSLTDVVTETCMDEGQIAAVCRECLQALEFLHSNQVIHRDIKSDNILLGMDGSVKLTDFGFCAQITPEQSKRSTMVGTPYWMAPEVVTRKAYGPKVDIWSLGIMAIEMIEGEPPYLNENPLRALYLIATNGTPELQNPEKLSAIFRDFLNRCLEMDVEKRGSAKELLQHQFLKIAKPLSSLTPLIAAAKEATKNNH", "experiment": "Inhibition of full-length recombinant human GST-tagged PAK1 expressed in baculovirus expression system by Z'-LYTE assay"}, "[7]": {"target": "High affinity nerve growth factor receptor (Homo sapiens, UniProt P04629)", "sequence (P04629 whole entry)": "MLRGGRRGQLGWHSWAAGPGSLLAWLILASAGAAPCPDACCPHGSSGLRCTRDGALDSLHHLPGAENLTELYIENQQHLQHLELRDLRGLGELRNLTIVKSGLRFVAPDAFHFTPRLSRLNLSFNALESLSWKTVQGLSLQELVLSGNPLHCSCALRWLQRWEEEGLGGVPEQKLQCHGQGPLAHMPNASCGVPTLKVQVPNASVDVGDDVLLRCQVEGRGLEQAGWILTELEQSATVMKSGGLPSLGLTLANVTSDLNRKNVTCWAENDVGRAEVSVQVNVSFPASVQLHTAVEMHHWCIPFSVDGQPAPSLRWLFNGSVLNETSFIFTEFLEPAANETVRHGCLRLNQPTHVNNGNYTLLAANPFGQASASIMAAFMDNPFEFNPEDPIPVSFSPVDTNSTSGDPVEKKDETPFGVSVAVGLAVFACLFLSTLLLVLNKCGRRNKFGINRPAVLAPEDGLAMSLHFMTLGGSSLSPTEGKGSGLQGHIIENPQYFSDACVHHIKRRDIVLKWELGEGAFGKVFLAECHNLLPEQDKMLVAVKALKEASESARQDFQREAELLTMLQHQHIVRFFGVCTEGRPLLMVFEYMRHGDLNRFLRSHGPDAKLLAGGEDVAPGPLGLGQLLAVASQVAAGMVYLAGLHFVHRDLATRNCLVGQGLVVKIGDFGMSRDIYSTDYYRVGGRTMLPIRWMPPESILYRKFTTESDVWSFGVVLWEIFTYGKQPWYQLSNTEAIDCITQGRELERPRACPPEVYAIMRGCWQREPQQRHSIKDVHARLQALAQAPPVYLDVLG", "experiment": "Inhibition of recombinant human His-tagged cytoplasmic NTRK1 expressed in baculovirus expression system by Z'-LYTE assay"}, "[8]": {"target": "Ribosomal protein S6 kinase alpha-3 (Homo sapiens, UniProt P51812)", "sequence (P51812 whole entry)": "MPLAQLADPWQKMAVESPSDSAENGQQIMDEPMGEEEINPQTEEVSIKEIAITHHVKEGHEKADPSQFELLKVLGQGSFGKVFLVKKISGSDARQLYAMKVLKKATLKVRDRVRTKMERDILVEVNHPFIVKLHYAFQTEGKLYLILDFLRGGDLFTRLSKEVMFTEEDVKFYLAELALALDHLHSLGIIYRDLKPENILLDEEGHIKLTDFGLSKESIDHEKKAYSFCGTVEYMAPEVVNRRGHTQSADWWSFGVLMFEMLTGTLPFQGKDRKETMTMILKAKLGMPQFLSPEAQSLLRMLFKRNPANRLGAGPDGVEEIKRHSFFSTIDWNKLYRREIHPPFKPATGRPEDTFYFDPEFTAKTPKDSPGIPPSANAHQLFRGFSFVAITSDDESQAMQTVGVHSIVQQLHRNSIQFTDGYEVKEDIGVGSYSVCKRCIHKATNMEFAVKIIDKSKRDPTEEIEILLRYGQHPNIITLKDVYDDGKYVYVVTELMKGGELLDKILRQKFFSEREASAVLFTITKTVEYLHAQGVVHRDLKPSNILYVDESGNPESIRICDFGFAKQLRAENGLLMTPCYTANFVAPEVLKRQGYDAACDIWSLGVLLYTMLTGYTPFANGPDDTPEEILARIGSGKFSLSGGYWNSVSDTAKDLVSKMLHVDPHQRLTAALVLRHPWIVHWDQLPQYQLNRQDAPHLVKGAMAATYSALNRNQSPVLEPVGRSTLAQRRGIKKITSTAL", "experiment": "Inhibition of full-length recombinant human His-tagged RPS6KA3 expressed in baculovirus expression system by Z'-LYTE assay"}}, "data": [{"smiles": "Cn1cc(-c2cnc3c(-c4csc(C(=O)NCC(F)(F)F)c4)cnn3c2)cn1", "values": [{"measurement": "IC50", "setting": "[1]", "value": 240, "unit": "nM"}, {"measurement": "IC50", "setting": "[2]", "value": 35000, "unit": "nM"}, {"measurement": "IC50", "setting": "Ephrin type-A receptor 8", "value": 29, "unit": "nM"}, {"measurement": "IC50", "setting": "[3]", "value": 19, "unit": "nM"}, {"measurement": "IC50", "setting": "[4]", "value": 130, "unit": "nM"}, {"measurement": "IC50", "setting": "[5]", "value": "< 10", "unit": "nM"}, {"measurement": "IC50", "setting": "[6]", "value": 6200, "unit": "nM"}, {"measurement": "IC50", "setting": "[7]", "value": 540, "unit": "nM"}, {"measurement": "IC50", "setting": "[8]", "value": 380, "unit": "nM"}]}, {"smiles": "Cc1sc(C(=O)N[C@@H]2[C@H](N)CCCC2(F)F)cc1-c1cnn2cc(Cl)cnc12", "values": [{"measurement": "IC50", "setting": "[1]", "value": 480, "unit": "nM"}, {"measurement": "IC50", "setting": "[2]", "value": 3300, "unit": "nM"}, {"measurement": "IC50", "setting": "Ephrin type-A receptor 8", "value": 16000, "unit": "nM"}, {"measurement": "IC50", "setting": "[3]", "value": 200, "unit": "nM"}, {"measurement": "IC50", "setting": "[4]", "value": 110, "unit": "nM"}, {"measurement": "IC50", "setting": "[5]", "value": 61, "unit": "nM"}, {"measurement": "IC50", "setting": "[6]", "value": 2100, "unit": "nM"}, {"measurement": "IC50", "setting": "[7]", "value": 2100, "unit": "nM"}, {"measurement": "IC50", "setting": "[8]", "value": 47, "unit": "nM"}]}, {"smiles": "O=C(NCC(F)(F)F)c1cc(-c2cnn3cc(-c4ccc(OCCN5CCCCC5)cc4)cnc23)cs1", "values": [{"measurement": "IC50", "setting": "[1]", "value": 160, "unit": "nM"}, {"measurement": "IC50", "setting": "[2]", "value": 19000, "unit": "nM"}, {"measurement": "IC50", "setting": "Ephrin type-A receptor 8", "value": 21, "unit": "nM"}, {"measurement": "IC50", "setting": "[3]", "value": 15, "unit": "nM"}, {"measurement": "IC50", "setting": "[4]", "value": 360, "unit": "nM"}, {"measurement": "IC50", "setting": "[5]", "value": 19, "unit": "nM"}, {"measurement": "IC50", "setting": "[6]", "value": 8300, "unit": "nM"}, {"measurement": "IC50", "setting": "[7]", "value": 310, "unit": "nM"}, {"measurement": "IC50", "setting": "[8]", "value": 260, "unit": "nM"}]}, {"smiles": "Cn1cc(-c2cnc3c(-c4csc(C(=O)N[C@@H]5CCCC[C@@H]5N)c4)cnn3c2)cn1", "note": "(racemic)", "values": [{"measurement": "IC50", "setting": "[1]", "value": 48, "unit": "nM"}, {"measurement": "IC50", "setting": "[2]", "value": 290, "unit": "nM"}, {"measurement": "IC50", "setting": "Ephrin type-A receptor 8", "value": 2.9, "unit": "nM"}, {"measurement": "IC50", "setting": "[3]", "value": 4.2, "unit": "nM"}, {"measurement": "IC50", "setting": "[4]", "value": 42, "unit": "nM"}, {"measurement": "IC50", "setting": "[5]", "value": 4.4, "unit": "nM"}, {"measurement": "IC50", "setting": "[6]", "value": 24, "unit": "nM"}, {"measurement": "IC50", "setting": "[7]", "value": 50, "unit": "nM"}, {"measurement": "IC50", "setting": "[8]", "value": "< 1", "unit": "nM"}]}]}
